Measured values: publication PMC6532652, “Enantiospecific Synthesis, Chiral Separation, and Biological Activity of Four Indazole-3-Carboxamide-Type Synthetic Cannabinoid Receptor Agonists and Their Detection in Seized Drug Samples” (Frontiers in Chemistry, 2019)

How the values were obtained:
[1] = target: T1, CB1 (Homo sapiens, UniProt P21554); experiment: NanoLuc complementation beta-arrestin […] recruitment, live cells; format: cell-based; conditions: read-out: CB1 / EC50 (nM) (± 95% CI)
T1 construct: gene CNR1; co-expressed with beta-arrestin 2 fused to the complementary fragment

[2] = target: T2, CB2 (Homo sapiens, UniProt P34972); experiment: as above; format: cell-based; conditions: read-out: CB2 / EC50 (nM) (± 95% CI)
T2 construct: gene CNR2; co-expressed with beta-arrestin 2 fused to the complementary fragment
T2 sequence (P34972 whole entry, the tested form may be a part): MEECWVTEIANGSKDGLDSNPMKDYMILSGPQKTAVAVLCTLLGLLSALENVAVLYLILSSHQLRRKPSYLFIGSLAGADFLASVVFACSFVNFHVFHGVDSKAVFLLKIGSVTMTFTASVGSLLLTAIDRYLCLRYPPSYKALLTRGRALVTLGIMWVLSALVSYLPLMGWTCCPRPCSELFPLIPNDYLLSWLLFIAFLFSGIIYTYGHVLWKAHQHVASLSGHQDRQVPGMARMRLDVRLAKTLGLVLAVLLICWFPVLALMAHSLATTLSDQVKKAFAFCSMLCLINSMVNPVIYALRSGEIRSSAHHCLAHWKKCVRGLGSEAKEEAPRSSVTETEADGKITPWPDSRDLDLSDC

T1 sequence (P21554 whole entry, the tested form may be a part): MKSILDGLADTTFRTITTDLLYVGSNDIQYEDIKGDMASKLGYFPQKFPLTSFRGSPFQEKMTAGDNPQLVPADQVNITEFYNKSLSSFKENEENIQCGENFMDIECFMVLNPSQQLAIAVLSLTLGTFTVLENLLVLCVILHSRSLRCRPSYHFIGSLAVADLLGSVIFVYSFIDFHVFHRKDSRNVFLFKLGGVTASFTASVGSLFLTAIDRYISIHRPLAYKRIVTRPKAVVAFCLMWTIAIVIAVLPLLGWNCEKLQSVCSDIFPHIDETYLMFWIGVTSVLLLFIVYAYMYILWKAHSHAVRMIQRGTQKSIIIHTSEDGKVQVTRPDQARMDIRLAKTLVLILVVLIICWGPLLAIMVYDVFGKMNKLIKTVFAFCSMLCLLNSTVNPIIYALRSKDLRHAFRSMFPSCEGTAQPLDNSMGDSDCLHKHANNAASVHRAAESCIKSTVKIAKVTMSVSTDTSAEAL

**Q.** Which EC50 [1] does the source give for CC(C)[C@@H](NC(=O)c1nn(Cc2ccc(F)cc2)c2ccccc12)C(N)=O [compound 1, (R)-AB-FUBINACA] here?
**A.** 1480 nM

**Q.** And the EC50 [2]?
**A.** 102 nM

**Q.** How did the EC50 [1] turn out when CC(C)[C@H](NC(=O)c1nn(Cc2ccc(F)cc2)c2ccccc12)C(N)=O [compound 1, N-(2S)-(1-amino-3-methyl-1-oxobutan-2-yl)-1-(4-fluorobenzyl)-1H-indazole-3-carboxamide] was run?
**A.** 12.9 nM

**Q.** And the EC50 [2]?
**A.** 1.6 nM

**Q.** Which EC50 [1] does the source give for COC(=O)[C@H](NC(=O)c1nn(Cc2ccc(F)cc2)c2ccccc12)C(C)C [compound 2, (R)-AMB-FUBINACA] here?
**A.** 55.8 nM

**Q.** And the EC50 [2]?
**A.** 1.19 nM

**Q.** Which results are given for COC(=O)[C@@H](NC(=O)c1nn(Cc2ccc(F)cc2)c2ccccc12)C(C)C [compound 2, methyl (2S)-2-(1-(4-fluorobenzyl)-1H-indazole-3-carboxamido)-3-methylbutanoate]?
**A.** EC50 [1]: 9.11 nM; EC50 [2]: 0.77 nM

**Q.** Which results are given for COC(=O)[C@H](NC(=O)c1nn(CCCCCF)c2ccccc12)C(C)(C)C [compound 3, (R)-5F-MDMB-PINACA]?
**A.** EC50 [1]: 131 nM; EC50 [2]: 6.87 nM

**Q.** COC(=O)[C@@H](NC(=O)c1nn(CCCCCF)c2ccccc12)C(C)(C)C [compound 3, (S)-5F-MDMB-PINACA] was tested. Which EC50 [1] did it give?
**A.** 1.78 nM

**Q.** What about the EC50 [2] of the same molecule?
**A.** 1.46 nM

**Q.** What does the source list for CC(C)[C@@H](NC(=O)c1nn(CC2CCCCC2)c2ccccc12)C(N)=O [compound 4, (R)-AB-CHMINACA]?
**A.** EC50 [1]: 319 nM; EC50 [2]: 33.6 nM

**Q.** Which EC50 [1] does the source give for CC(C)[C@H](NC(=O)c1nn(CC2CCCCC2)c2ccccc12)C(N)=O [compound 4, N-(2S)-(1-amino-3-methyl-1-oxobutan-2-yl)-1-(cyclohexylmethyl)-1H-indazole-3-carboxamide] here?
**A.** 6.16 nM

**Q.** And the EC50 [2]?
**A.** 1.75 nM

**Q.** CCCCCn1cc(C(=O)c2cccc3ccccc23)c2ccccc21 [compound 19, JWH-018, reference compound] was tested. Which EC50 [1] did it give?
**A.** 45.1 nM

**Q.** And the EC50 [2]?
**A.** 9.71 nM
